Laboratory results: paper doi:10.1101/2024.08.19.608619, “Discovery of potent SARS-CoV-2 nsp3 macrodomain inhibitors uncovers lack of translation to cellular antiviral response” (bioRxiv, 2024)
In brackets after ≈: the same amount, converted by molar mass. Several values for one entry are separate records, joined by “and”; a condition that tells them apart may be missing. Equal entries are not always repeated. Where two headings read alike, the source gives them in different places.

Experiments:
[1] = test system: SARS-CoV-2, isolate USA-WA1/2020; assay: microbe, parasite or virus in culture; assay type: cell-based; conditions: HeLa-ACE2 SARS-CoV-2 antiviral effect without P-gp inhibitor; for perc_max_measured: maximum measured response of dose series; for perc_min_measured: minimum measured response of dose series; for EC50: read-out: ec50; for EC90: read-out: ec90
[2] = test system: SARS-CoV-2; assay: Antiviral effect in iPSC-derived pneumocyte system; assay type: cell-based; conditions: iPSC pneumocytes SARS-CoV-2 antiviral effect; for perc_max_measured: maximum measured response of dose series; for perc_min_measured: minimum measured response of dose series
[3] = Hepatic microsomal stability, HLM; assay type: in vitro ADME, human; conditions: In vitro human liver microsomal stability; for perc_remaining_no_cofactor: no cofactor
[4] = Hepatic microsomal stability, MLM; assay type: in vitro ADME
[5] = test system: iPSC pneumocytes; assay: iPSC pneumocytes cytotoxicity; assay type: cell-based; conditions: for perc_max_measured: highest measured response of the dose series; for perc_min_measured: lowest measured response of the dose series
Excerpt: Supplement media-1.zip/Cytotoxicity.csv, table | column: cc10; cc50; perc_min_measured; perc_max_measured

[6] = test system: HeLa-ACE2 cells; conditions: for perc_max_measured: highest measured response of the dose series; for perc_min_measured: lowest measured response of the dose series
[7] = LogD; conditions: pH 7.4; In vitro LogD
[8] = in vitro; design: Cytotoxicity in iPSC-derived pneumocytes, CC50; conditions: human, ipsc-derived pneumocytes, read-out: 50.0
Excerpt: Finally, we consider the hypothesis that interferon response triggers ADP-ribosylation, thus profiling the compounds in enhanced and physiologically relevant interferon environments could reveal detectable antiviral effects. […] Furthermore, HeLa-ACE2 cells, and all cancerous cell lines, display defective innate immune response ([1]). As such, we also assess our compound in a primary-like iPSC-derived pneumocyte system (Figure 7C), showing likewise a lack of antiviral activity in this physiologically relevant innate immunity system.

[9] = in vitro; conditions: human, hela-ace2 cells, 50.0
[10] = In vitro kinetic solubility; conditions: In vitro kinetic solubility, ph 7.4
[11] = Permeability Papp (AB) MDR1/MDCKII; conditions: for papp_a_to_b_mean / perc_recovery_a_to_b_mean / papp_b_to_a_mean / efflux_ratio / perc_recovery_b_to_a_mean: In vitro MDR1-MDCKII permeability; for papp_a_to_b_mean: A to B; for perc_recovery_a_to_b_mean / perc_recovery_a_to_b_inhibitor_mean: recovery A to B; for papp_b_to_a_mean: B to A; for perc_recovery_b_to_a_mean / perc_recovery_b_to_a_inhibitor_mean: recovery B to A; for perc_recovery_a_to_b_inhibitor_mean / perc_recovery_b_to_a_inhibitor_mean: MDR1-MDCKII
[12] = In vitro mouse liver microsomal stability
[13] = protocol iPSC pneumocytes cytotoxicity
[14] = protocol HeLa-ACE2 cytotoxicity
[15] = In vitro mouse liver microsomal stability, no cofactor

CC(C)[C@@H](Nc1ncnc2[nH]c(-c3cnn(C)c3C#N)cc12)c1ccc2c(c1)OCCO2 (racemic) [ASAP-0008275]
perc_max_measured [1]: 109.522%
perc_min_measured [1]: 3.811% and 0.0%
EC50 [1]: 1.73 µM and 1.72 µM
EC90 [1]: 4.31 µM and 4.23 µM
perc_max_measured [2]: 108.15% and 116.315%
perc_min_measured [2]: 1.229% and 8.563%
clint [3]: 74.0 µL/min/mg
perc_remaining [3]: 25.0%
t_half [3]: 22.6 min
perc_remaining_no_cofactor [3]: 111.0%
clint [4, 12]: 218.0 µL/min/mg
perc_remaining [4, 12]: 3.0%
t_half [4, 12]: 7.7 min
perc_remaining_no_cofactor ([4]; In vitro mouse liver microsomal stability; no cofactor): 97.0%
CC50 [5, 13]: > 50 µM
cc10 [5, 13]: 13.408 µM
perc_max_measured [5, 13]: 110.873% and 99.023%
perc_min_measured [5, 13]: 69.382% and 78.095%
CC50 [6, 14]: > 50 µM
cc10 [6, 14]: > 50.0 µM
perc_max_measured [6, 14]: 136.373%
perc_min_measured [6, 14]: 77.442%
logd [7]: 3.0
CC50 ([8]; ASAP-0008327-001=ASAP-0008275-001): > 50 µM
CC50 at 24 h [9]: > 50 µM
solubility_mean [10]: 17 µM (≈ 7.3 µg/mL)
papp_a_to_b_mean ([11]; mean): 4.2 ×10⁻⁶ cm/s
perc_recovery_a_to_b_mean ([11]; mean): 36.0%

CC(C)[C@@H](Nc1ncnc2[nH]c(-c3cnn(C)c3C#N)cc12)c1ccc2c(c1)S(=O)(=O)CCC2 (single isomer, unassigned) [ASAP-0011147]
perc_max_measured [1]: 114.163%
perc_min_measured [1]: 4.545%
EC50 [1]: 3.51 µM
EC90 [1]: 13.2 µM
EC50 [2]: 0.411 µM
EC90 [2]: 13 µM
perc_max_measured [2]: 75.192%
perc_min_measured [2]: 0.111%
clint [3]: 516.0 µL/min/mg
perc_remaining [3]: 0.0%
t_half [3]: 3.2 min
perc_remaining_no_cofactor [3]: 101.0%
clint [4, 12]: 709.0 µL/min/mg
perc_remaining [4, 12]: 0.0%
t_half [4, 12]: 2.4 min
perc_remaining_no_cofactor [4, 15]: 106.0%
CC50 [5]: > 50 µM
cc10 [5]: > 50.0 µM
perc_max_measured [5]: 111.987%
perc_min_measured [5]: 95.623%
CC50 [6, 14]: > 20 µM
cc10 [6, 14]: > 20.0 µM
perc_max_measured [6, 14]: 92.283%
perc_min_measured [6, 14]: 75.829%
logd [7]: 3.7
CC50 ([8]; ASAP-0008327-001=ASAP-0011147-001): > 50 µM
CC50 at 24 h [9]: > 20 µM
solubility_mean [10]: 26 µM (≈ 12.4 µg/mL)
papp_a_to_b_mean ([11]; mean): 1.82 ×10⁻⁶ cm/s
papp_a_to_b_mean ([11]; no inhibitor): 0.087 ×10⁻⁶ cm/s
papp_b_to_a_mean ([11]; no inhibitor): 7.5 ×10⁻⁶ cm/s
efflux_ratio ([11]; no inhibitor): 85.7
perc_recovery_a_to_b_mean ([11]; mean): 54.6%
perc_recovery_a_to_b_mean ([11]; no inhibitor): 82.5%
perc_recovery_b_to_a_mean ([11]; no inhibitor): 96.5%
perc_recovery_a_to_b_inhibitor_mean ([11]; with inhibitor Verapamil): 63.2%
perc_recovery_b_to_a_inhibitor_mean ([11]; with inhibitor Verapamil): 72.3%

CNC(=O)Cn1cc(-c2cc3c(N[C@H](c4ccc5c(c4)S(=O)(=O)CCC5)C(C)C)ncnc3[nH]2)cn1 (single isomer, unassigned) [ASAP-0011171]
perc_max_measured [1]: 108.143%
perc_min_measured [1]: 92.194%
EC50 [1]: > 20 µM
EC90 [1]: > 20 µM
EC50 [2]: > 50 µM
EC90 [2]: > 50 µM
perc_max_measured [2]: 106.027%
perc_min_measured [2]: 60.326%
clint [3]: 92.0 µL/min/mg
perc_remaining [3]: 23.0%
t_half [3]: 18.1 min
perc_remaining_no_cofactor [3]: 101.0%
clint [4, 12]: 111.0 µL/min/mg
perc_remaining [4, 12]: 16.0%
t_half [4, 12]: 15.0 min
perc_remaining_no_cofactor [4, 15]: 96.0%
CC50 [5]: > 50 µM
cc10 [5]: > 50.0 µM
perc_max_measured [5]: 98.842%
perc_min_measured [5]: 89.646%
CC50 [6, 14]: > 20 µM
cc10 [6, 14]: > 20.0 µM
perc_max_measured [6, 14]: 102.722%
perc_min_measured [6, 14]: 92.936%
logd [7]: 2.4
CC50 ([8]; ASAP-0008327-001=ASAP-0011171-001): > 50 µM
solubility_mean [10]: 323 µM (≈ 164 µg/mL)
papp_a_to_b_mean ([11]; mean): 0.396 ×10⁻⁶ cm/s
perc_recovery_a_to_b_mean ([11]; mean): 65.1%

CC(C)[C@@H](Nc1ncnc2[nH]c(-c3cnn(CC(N)=O)c3)cc12)c1ccc2c(n1)OCCO2 (single isomer, unassigned) [ASAP-0012315]
perc_max_measured [1]: 122.738%
perc_min_measured [1]: 101.22%
EC50 [1]: > 20 µM
EC90 [1]: > 20 µM
EC50 [2]: > 50 µM
EC90 [2]: > 50 µM
perc_max_measured [2]: 94.962%
perc_min_measured [2]: 56.467%
clint [3]: 18.0 µL/min/mg
perc_remaining [3]: 77.0%
t_half [3]: 91.8 min
perc_remaining_no_cofactor [3]: 95.0%
clint [4, 12]: 9.0 µL/min/mg
perc_remaining [4, 12]: 90.0%
t_half [4, 12]: 182.3 min
perc_remaining_no_cofactor [4, 15]: 102.0%
CC50 [5]: > 50 µM
cc10 [5]: > 50.0 µM
perc_max_measured [5]: 105.354%
perc_min_measured [5]: 100.058%
perc_max_measured [6, 14]: 91.832%
perc_min_measured [6, 14]: 81.293%
logd [7]: 2.4
CC50 ([8]; ASAP-0008327-001=ASAP-0012315-001): > 50 µM
solubility_mean [10]: 395 µM (≈ 177 µg/mL)
papp_b_to_a_mean ([11]; no inhibitor): 2.3 ×10⁻⁶ cm/s and 3.5 ×10⁻⁶ cm/s
perc_recovery_a_to_b_mean ([11]; no inhibitor): 59.0% and 72.1% and 66.1%
perc_recovery_b_to_a_mean ([11]; no inhibitor): 78.3% and 92.2%
perc_recovery_a_to_b_inhibitor_mean ([11]; with inhibitor Cyclosporin A): 64.5%
perc_recovery_a_to_b_inhibitor_mean ([11]; with inhibitor Verapamil): 96.8%
perc_recovery_b_to_a_inhibitor_mean ([11]; with inhibitor Cyclosporin A): 57.4%
perc_recovery_b_to_a_inhibitor_mean ([11]; with inhibitor Verapamil): 85.3%

CC(C)[C@@H](Nc1ncnc2[nH]c(C(=O)N[C@H]3CCN(C)C3)cc12)c1ccc2c(c1)S(=O)(=O)CCC2 (single isomer, unassigned) [ASAP-0012336]
perc_max_measured [1]: 102.123%
perc_min_measured [1]: 84.181%
EC50 [1]: > 20 µM
EC90 [1]: > 20 µM
EC50 [2]: > 50 µM
EC90 [2]: > 50 µM
perc_max_measured [2]: 114.501%
perc_min_measured [2]: 59.767%
clint [3]: 26.0 µL/min/mg
perc_remaining [3]: 66.0%
t_half [3]: 64.0 min
perc_remaining_no_cofactor [3]: 107.0%
clint [4, 12]: 4.0 µL/min/mg
perc_remaining [4, 12]: 92.0%
t_half [4, 12]: 433.8 min
perc_remaining_no_cofactor [4, 15]: 92.0%
CC50 [5]: > 50 µM
cc10 [5]: > 50.0 µM
perc_max_measured [5]: 106.87%
perc_min_measured [5]: 91.721%
CC50 [6, 14]: > 20 µM
cc10 [6, 14]: > 20.0 µM
perc_max_measured [6, 14]: 90.418%
perc_min_measured [6, 14]: 77.593%
logd [7]: 1.5
CC50 ([8]; ASAP-0008327-001=ASAP-0012336-001): > 50 µM
solubility_mean [10]: 392 µM (≈ 195 µg/mL)
papp_b_to_a_mean ([11]; no inhibitor): 0.038 ×10⁻⁶ cm/s
efflux_ratio ([11]; no inhibitor): 0.5
perc_recovery_a_to_b_mean ([11]; no inhibitor): 53.5% and 74.5%
perc_recovery_b_to_a_mean ([11]; no inhibitor): 66.7%
perc_recovery_a_to_b_inhibitor_mean ([11]; with inhibitor Verapamil): 95.9%
perc_recovery_b_to_a_inhibitor_mean ([11]; with inhibitor Verapamil): 77.9%

Cc1ncc(-c2cc3c(N[C@@H](c4ccc5c(c4)OCCO5)C(C)C)ncnc3[nH]2)cn1 [ASAP-0008490]
perc_max_measured [1]: 95.537% and 100.014%
EC50 [1]: 4.51 µM
EC90 [1]: > 20 µM
EC50 [2]: 15.7 µM
EC90 [2]: 36 µM
perc_max_measured [2]: 160.084%
perc_min_measured [2]: 9.251%
CC50 [5, 13]: > 50 µM
cc10 [5, 13]: > 50.0 µM
perc_max_measured [5, 13]: 94.665%
perc_min_measured [5, 13]: 63.131%
CC50 [6]: > 20 µM
cc10 [6]: > 20.0 µM
perc_max_measured [6, 14]: 110.055% and 97.495%
perc_min_measured [6, 14]: 79.698% and 83.505%
CC50 ([8]; ASAP-0008327-001=ASAP-0008490-001): > 50 µM
CC50 at 24 h [9]: > 20 µM
